Patent US11965038B2, “Pharmaceutical composition comprising antibody binding specifically to lysyl-tRNA synthetase N-terminus as effective ingredient for preventing or treating immune cell migration-related disease” (Zymedi Co., Ltd., priority 2017, dated 2024)

What was measured:
[1] = tested on: migration and invasion of immune cells; settings: ear skin wound models, liver ischemia-reperfusion injury models; from Korean applications 10-2017-0076718 and 10-2018-0069146; cited from earlier work
[2] = tested on: pulmonary arterial hypertension (PAH) models; test: Echocardiography in MCT-induced PAH model; type: in vivo, SD rats; settings: PAH rats, MCT alone: three animals
Description: (§1) To induce PAH in 7-week-old SD rats (Oriental Bio), 60 mpk of MCT (monocrotaline) were subcutaneously injected.

[3] = Body weight change in MCT-induced PAH model; type: in vivo, SD rats; settings: sildenafil 25 mpk, n = 5
Description: as §1

KRS = test: Western blotting of KRS in cytosol and membrane fractions after LN421 treatment; type: cell-based; settings: 1 μg/ml LN421, 0 h, 12 h, 24 h
Protocol: After seeding RAW 264.7 cells (2×10^6 cells) in 100 pie plate and incubating for 18 hr, the serum free-DMEM media was treated with 1 μg/ml LN421 and the cells were harvested at 0 h, 12 h, and 24 h. RAW 264.7 cell proteins were separated into cytosol and membrane fractions using the ProteoExtract® Subcellular Proteome Extraction Kit (Calbiotech, cat #539790). The obtained protein was subjected to electrophoresis, transferred to PVDF membrane (Millipore) and blocked with 3% skim milk. KRS was then detected by the western blotting. Specifically, KRS polyclonal antibody (rabbit, Neomics, Co. Ltd. #NMS-01-0005) was added to bind for 1 hour. Unbound antibody was removed and then anti-rabbit secondary antibody (Thermo Fisher Scientific, #31460) was added. After reacting with the secondary antibody, the film was developed in the dark room using ECL reagent as a substrate. The detected bands were compared to standard molecular markers to identify the bands corresponding to the size of the KRS. Antibodies against Na+/K+ATPase (Abcam, ab76020) and tubulin (Santa cruz SC-5286) were used to identify plasma membrane and cytosol markers, respectively.

RAW 264.7 cells = test: Transwell migration assay with extracellular matrix proteins and laminin subtypes; type: cell-based
Protocol: In the extracellular matrix (ECM) that make up the blood vessels, it was identified which promotes the migration and invasion of monocytes/macrophages. Transwell migration assay was performed using collagen (collagen, Col), fibronectin (FN) and laminin (LN) as extracellular matrix. The specific experimental method is as follows. After transwells (Corning, #3421-5 mm) were coated with gelatin (0.5 mg/ml), RAW 264.7 cells (1×10^5 cells/well) were seeded into the top chamber. Fibronectin or Collagen was placed in the bottom chamber. Serum Free DMEM (500 μl) containing 10 μg/ml of Laminin (laminin mixture, Biolamina), Fibronectin or Collagen, respectively, was placed in the bottom chamber. After 24 hours, the cells were treated with 70% methanol for 30 minutes and fixed, and then stained with 50% Hematoxylin for 30 minutes. After removing non-migrating cells from the top of the membrane with a cotton swab, the membrane was taken and mounted on the slide. The migrating cells on the underside of the membrane were observed and quantified under a high magnification microscope.
The effects of laminin subtypes on immune cell migration and invasion were evaluated. A transwell cell migration assay was performed in the same manner as in the Example 1 using LN111, LN211, LN221, LN411, LN421, LN511, and LN521 at 1 μg/ml as various laminin subtype proteins (purchased from Biolamina). […]

Molecule: COc1ccc(CCN(Cc2ccc(C(=O)O)cc2)c2nc3cccc(F)c3s2)cc1 [BC-KI-00053, 4-({(7-fluorobenzo [d]thiazol-2-yl) [2-(4-methoxyphenyl)ethyl]amino}methyl) benzoic acid]
- migration and invasion of immune cells [1]: inhibited

Molecule: CCCc1nn(C)c2c(=O)[nH]c(-c3cc(S(=O)(=O)N4CCN(C)CC4)ccc3OCC)nc12 [Sildenafil, sildenafil]
- D-shaped left ventricle finding indicating pressure overload in the right ventricle [2]: three animals
- Relative change (weight) ([3]; MCT + Mock IgG 48.8 ± 7.8): 49.8 ± 10.5%
- Absolute change (weight) ([3]; MCT + Mock IgG 101.4 ± 14.2): 104.1 ± 26.4 g

Molecule: LN421: laminin subtype α4β2γ1, purchased from Biolamina
- amount of KRS detected in the cell membrane region (KRS): increased
- migration of monocytes/macrophages by laminin subtype (RAW 264.7 cells; laminin subtypes at 1 μg/ml): specifically move in response

Molecule: laminin
- migration of monocytes/macrophages (RAW 264.7 cells; collagen, fibronectin or laminin mixture 10 μg/ml in bottom chamber, 24 hours): most strongly promotes
